Here are results for 21 compounds from patent US9187472B2 (AbbVie Inc., priority 2012, dated 2015).

One assay has as its target NAMPT (Homo sapiens, UniProt P43490). Briefly: TR-FRET Binding Assay of NAMPT with PRPP. Particulars: with 200 μM PRPP and 2.5 mM ATP; 2 nM NAMPT, 2 nM probe, 16 hours equilibration. The method in brief:
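Compounds were mixed with 2 nM His-tagged NAMPT, 2 nM probe, 1 nM terbium anti-His antibody, 200 μM PRPP and 2.5 mM ATP in assay buffer with 2% DMSO, then left 16 hours to permit possible enzymatic processing of compounds before time-resolved FRET was measured.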
(TR-FRET usually uses a lanthanide donor and a delayed reading to cut background.)

Assay [1] concerns the target NAMPT (human, recombinant, C-terminally His-tagged) (Homo sapiens, UniProt P43490). Briefly: Time-Resolved Fluorescence Resonance Energy Transfer (TR-FRET) Binding Assay of NAMPT. Particulars: without substrates; 6.8 nM NAMPT, 200 nM probe, 3 hours equilibration. The method in brief:
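Compounds, diluted in half-log steps, are mixed with enzyme (6.8 nM), fluorescent probe (200 nM) and Tb-anti-His antibody (1 nM) in pH 7.5 HEPES buffer containing 10 mM MgCl2 and 1 mM DTT. Plates equilibrate 3 h at room temperature; normalized FRET ratios are fitted by four-parameter logistic regression for IC50.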

Another assay deals with PC3 cells. Briefly: NAMPT Cell Proliferation Assay. In kind it is cell-based. As to conditions: Homo sapiens, PC-3, 120 h, 5 days incubation, cell viability by Cell Titer Glo. The method in brief:
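Proliferation of PC3 cells treated 5 days with a 10-fold compound series (top 10 μM) was quantified by Cell Titer Glo luminescence; IC50s were fitted from percent inhibition.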

Structures are written as SMILES. pIC50: −log10 of the molar value.

Chain of NAMPT (P43490 whole entry): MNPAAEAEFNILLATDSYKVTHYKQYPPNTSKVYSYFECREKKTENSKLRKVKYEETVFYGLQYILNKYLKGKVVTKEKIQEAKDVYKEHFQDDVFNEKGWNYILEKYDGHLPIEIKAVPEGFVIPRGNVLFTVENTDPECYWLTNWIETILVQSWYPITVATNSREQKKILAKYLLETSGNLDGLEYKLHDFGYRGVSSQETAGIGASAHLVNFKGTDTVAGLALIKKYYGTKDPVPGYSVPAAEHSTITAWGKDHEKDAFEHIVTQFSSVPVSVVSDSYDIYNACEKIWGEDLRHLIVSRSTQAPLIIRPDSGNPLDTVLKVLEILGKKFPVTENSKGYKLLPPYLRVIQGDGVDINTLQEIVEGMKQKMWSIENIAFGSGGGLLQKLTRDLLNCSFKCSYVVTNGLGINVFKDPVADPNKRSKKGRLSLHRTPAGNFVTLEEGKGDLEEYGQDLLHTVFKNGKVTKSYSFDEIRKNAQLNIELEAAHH
Chain of NAMPT (human, recombinant, C-terminally His-tagged) (P43490 whole entry): as above

As a reminder, the pIC50 is the negative decadic logarithm of the IC50, by convention in mol/L. On to `O=C(NCCCCC1CCN(C(=O)CC2CC2)CC1)Nc1ccc2nccn2c1` [Example 64, 1-{4-[1-(cyclopropylacetyl)piperidin-4-yl]butyl}-3-imidazo[1,2-a]pyridin-6-ylurea], for which the figures for the pIC50 (at NAMPT; in assay [1]; with PC3 cells) were 9.31, 6.29 and 7.70, respectively.

As to `CCC(C)CNC(=O)c1ccc(NC(=O)Nc2ccc3nccn3c2)cc1` (stereo not drawn) [Example 20, 4-[(imidazo[1,2-a]pyridin-6-ylcarbamoyl)amino]-N-(2-methylbutyl)benzamide], the pIC50 was 9.77 on NAMPT, 6.39 in assay [1] and 6.99 with PC3 cells.

As to `O=C(NCc1ccn2ccnc2c1)Nc1ccc(C2CCN(C(=O)Cc3ccccc3)CC2)cc1` [Example 716, 1-(imidazo[1,2-a]pyridin-7-ylmethyl)-3-{4-[1-(phenylacetyl)piperidin-4-yl]phenyl}urea], the pIC50 was 9.22 at NAMPT, 7.30 in assay [1] and 7.68 in the assay on PC3 cells.

For the compound `O=C(Nc1ccc(C(=O)NCCN2CCOCC2)cc1)Nc1ccc2nccn2c1` [Example 5, 4-[(imidazo[1,2-a]pyridin-6-ylcarbamoyl)amino]-N-[2-(morpholin-4-yl)ethyl]benzamide], the pIC50 on NAMPT was 9.16; in assay [1], 5.60; with PC3 cells, 6.13.

For `O=C(NCc1ccn2ccnc2c1)c1ccc(C2CCN(S(=O)(=O)c3ccccc3)C2)cc1` (stereo not drawn) [Example 627, N-(imidazo[1,2-a]pyridin-7-ylmethyl)-4-[1-(phenylsulfonyl)pyrrolidin-3-yl]benzamide], the pIC50 was 9.15 at NAMPT, 6.68 in assay [1] and 7.76 in the assay on PC3 cells.

Take `COC1(Cn2ncc(-c3ccc(C(=O)NCc4ccn5ccnc5c4)s3)c2C)CCCC(C)(C)C1` (stereo not drawn) [Example 273, N-(imidazo[1,2-a]pyridin-7-ylmethyl)-5-{1-[(1-methoxy-3,3-dimethylcyclohexyl)methyl]-5-methyl-1H-pyrazol-4-yl}thiophene-2-carboxamide]: the figures for the pIC50 (on NAMPT; in assay [1]; in the assay on PC3 cells) were 9.26, 7.31 and 8.63, respectively.

Turning to `O=C(Nc1ccc(NC(=O)C2CCS(=O)(=O)CC2)cc1)Nc1ccc2nccn2c1` [Example 49], the pIC50 at NAMPT is 9.50; in assay [1], 6.35; in the assay on PC3 cells, 5.15.

For the compound `O=C(NCc1ccn2ccnc2c1)c1ccc(C2CN(C(=O)c3ccccc3)C2)cc1` [Example 549, 4-(1-benzoylazetidin-3-yl)-N-(imidazo[1,2-a]pyridin-7-ylmethyl)benzamide], the negative logarithm of the IC50 (pIC50) was 9.65 on NAMPT, 7.09 in assay [1] and 8.03 with PC3 cells.

For `Cn1cc(C(=O)N2CCC(c3ccc(C(=O)NCc4ccn5ccnc5c4)cc3)CC2)cn1` [Example 517, N-(imidazo[1,2-a]pyridin-7-ylmethyl)-4-{1-[(1-methyl-1H-pyrazol-4-yl)carbonyl]piperidin-4-yl}benzamide], the pIC50 is 9.58 on NAMPT, 6.48 in assay [1] and 7.14 with PC3 cells.

Turning to `O=C(NCc1ccn2ccnc2c1)c1ccc(-c2cnn(CC3CCOCC3)c2)s1` [Example 265, N-(imidazo[1,2-a]pyridin-7-ylmethyl)-5-[1-(tetrahydro-2H-pyran-4-ylmethyl)-1H-pyrazol-4-yl]thiophene-2-carboxamide], the figures for the pIC50 (on NAMPT; in assay [1]; in the assay with PC3 cells) were 9.58, 7.48 and 8.80, respectively.

As for `O=C(NCc1ccn2ccnc2c1)c1ccc(C2CCN(C(=O)CC(F)(F)F)CC2)cc1` [Example 504, N-(imidazo[1,2-a]pyridin-7-ylmethyl)-4-[1-(3,3,3-trifluoropropanoyl)piperidin-4-yl]benzamide], the pIC50 on NAMPT is 9.44; in assay [1] it was 6.73; in the assay on PC3 cells, 7.81.

With `CC(C)CCC(=O)Nc1ccc(C(=O)NCc2ccn3ccnc3c2)cc1` [Example 213, N-(imidazo[1,2-a]pyridin-7-ylmethyl)-4-[(4-methylpentanoyl)amino]benzamide], the pIC50 was 9.57 on NAMPT, 6.94 in assay [1] and 7.40 in the assay with PC3 cells.

Regarding `O=C(NCc1ccn2ccnc2c1)c1ccc(C2CCN(C(=O)[C@@H]3CCOC3)CC2)cc1` [Example 309, N-(imidazo[1,2-a]pyridin-7-ylmethyl)-4-{1-[(3R)-tetrahydrofuran-3-ylcarbonyl]piperidin-4-yl}benzamide], the negative logarithm of the IC50 (pIC50) at NAMPT was 9.77; in assay [1], 6.93; in the assay with PC3 cells, 7.26.

On to `CC1(C(=O)N2CCC(c3ccc(C(=O)NCc4ccn5ccnc5c4)s3)C2)COC1` (stereo not drawn) [Example 767, N-(imidazo[1,2-a]pyridin-7-ylmethyl)-5-{1-[(3-methyloxetan-3-yl)carbonyl]pyrrolidin-3-yl}thiophene-2-carboxamide], for which the figures for the pIC50 (at NAMPT; in assay [1]; in the assay on PC3 cells) were 9.19, 6.58 and 7.17, respectively.

On to `CC/C=C(\C)C(=O)N1CCC(c2ccc(C(=O)NCc3ccn4ccnc4c3)cc2)CC1` [Example 510, N-(imidazo[1,2-a]pyridin-7-ylmethyl)-4-{1-[(2E)-2-methylpent-2-enoyl]piperidin-4-yl}benzamide], for which the pIC50 is 9.55 on NAMPT, 6.85 in assay [1] and 7.92 in the assay with PC3 cells.

On to `O=C(CC1CCCO1)Nc1ccc(C(=O)NCc2ccn3ccnc3c2)cc1` (stereo not drawn) [Example 209, N-(imidazo[1,2-a]pyridin-7-ylmethyl)-4-[(tetrahydrofuran-2-ylacetyl)amino]benzamide], for which the negative logarithm of the IC50 (pIC50) at NAMPT was 9.01; in assay [1] it was 6.09; in the assay on PC3 cells, 6.16.

For `O=C(CN1CCOCC1)Nc1ccc(NC(=O)Nc2ccc3nccn3c2)cc1` [Example 41], the pIC50 at NAMPT is 8.94; in assay [1] it was 6.53; with PC3 cells, 6.86.

Take `O=C(NCc1ccn2ccnc2c1)c1ccc(C2CCN(C(=O)c3cccnc3)C2)s1` (stereo not drawn) [Example 798, N-(imidazo[1,2-a]pyridin-7-ylmethyl)-5-[1-(pyridin-3-ylcarbonyl)pyrrolidin-3-yl]thiophene-2-carboxamide]: the pIC50 at NAMPT is 9.33; in assay [1], 7.02; in the assay on PC3 cells it was 8.02.

With `CC(C)(O)Cn1cc(-c2ncc(C(=O)NCc3ccn4ccnc4c3)s2)cn1` [Example 204, 2-[1-(2-hydroxy-2-methylpropyl)-1H-pyrazol-4-yl]-N-(imidazo[1,2-a]pyridin-7-ylmethyl)-1,3-thiazole-5-carboxamide], the pIC50 on NAMPT was 9.11; in assay [1], 5.32; in the assay on PC3 cells, 5.79.

For `O=C(NCc1ccn2ccnc2c1)c1ccc(C2CCN(C(=O)c3ccc(F)c(F)c3)CC2)cc1` [Example 701, 4-[1-(3,4-difluorobenzoyl)piperidin-4-yl]-N-(imidazo[1,2-a]pyridin-7-ylmethyl)benzamide], the pIC50 was 9.07 at NAMPT, 6.44 in assay [1] and 7.12 in the assay with PC3 cells.

As for `O=C(CC1CCCC1)Nc1ccc(NC(=O)NCc2cn3ccnc3cn2)cc1` [Example 681, 2-cyclopentyl-N-(4-{[(imidazo[1,2-a]pyrazin-6-ylmethyl)carbamoyl]amino}phenyl)acetamide], the pIC50 at NAMPT was 8.70; in assay [1] it was 7.56; in the assay on PC3 cells, 6.84.
